Results reported in patent US20240158348A1, “HERBICIDAL CYCLIC AMIDES N-SUBSTITUTED WITH A HALOALKYLSULFONYLANILIDE GROUP” (FMC Corporation, priority 2021, published 2024).

What was measured:
Format in all cases: in vivo
soybean (Glycine max) [1] = test: Test C postemergence, soybean; conditions: visual injury, 0 to 100 scale (0 no effect, 100 complete control)
kochia (Bassia scoparia) [2] = test: Test C preemergence, kochia; conditions: 0 is no effect, 100 is complete control
Procedure, shortened: (§1)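 Plants grown in a sand and loam soil blend received the formulated test chemicals either as a preemergence soil-directed spray or postemergence at 2 to 10 cm height. After 10 or 12 greenhouse days, injury was assessed visually, with 100 meaning complete control.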

corn (Zea mays) [3] = test: Test C postemergence, corn
[4] = tested on: ryegrass, Italian (Italian ryegrass, Lolium multiflorum); test: Test C postemergence, Italian ryegrass; conditions: visual injury, 0 to 100 scale (0 no effect, 100 complete control)
Procedure, shortened: as §1

kochia (Bassia scoparia) [5] = test: Test C postemergence, kochia
Procedure, shortened: as §1

[6] = tested on: blackgrass (Alopecurus myosuroides); test: Test C postemergence, blackgrass; conditions: 31 g ai/ha Postemergence; visual injury, 0 to 100 scale (0 no effect, 100 complete control)
Procedure, shortened: as §1

[7] = tested on: goosegrass (Eleusine indica); test: Test C preemergence, goosegrass; conditions: 0 is no effect, 100 is complete control
Procedure, shortened: as §1

[8] = tested on: pigweed, palmer (palmer amaranth, Amaranthus palmeri); test: Test C preemergence, palmer amaranth; conditions: 0 is no effect, 100 is complete control
Procedure, shortened: as §1

soybean (Glycine max) [9] = test: Test C preemergence, soybean; conditions: 0 is no effect, 100 is complete control
Procedure, shortened: as §1

[10] = tested on: wheat (Triticum aestivum); test: Test C postemergence, wheat; conditions: visual injury, 0 to 100 scale (0 no effect, 100 complete control)
Procedure, shortened: as §1

[11] = tested on: galium (catchweed bedstraw, Galium aparine); test: Test C postemergence, galium
[12] = tested on: ryegrass, Italian (Italian ryegrass, Lolium multiflorum); test: Test C preemergence, Italian ryegrass; conditions: 0 is no effect, 100 is complete control
Procedure, shortened: as §1

[13] = tested on: blackgrass (Alopecurus myosuroides); test: Test C preemergence, blackgrass; conditions: 0 is no effect, 100 is complete control
Procedure, shortened: as §1

[14] = tested on: sedge, umbrella (small-flower umbrella sedge, Cyperus difformis); test: Test D flooded paddy test, umbrella sedge; set-up: key: 0 = no effect, 100 = complete control; conditions: 250 g ai/ha, Flood; applied to paddy water at 2-leaf stage; visual rating after 13 days; scale 0 (no effect) to 100 (complete control)
Procedure, shortened: (§2)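 Visual response scores run 0 (no effect) to 100 (complete control), judged against controls 13 days after treatment. Compounds were added to paddy water 3 cm deep over soil, around plants at the 2-leaf stage kept in a greenhouse.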

[15] = tested on: foxtail, giant (giant foxtail, Setaria faberi); test: Test C postemergence, giant foxtail
[16] = tested on: ragweed (common ragweed, Ambrosia artemisiifolia); test: Test C postemergence, ragweed; conditions: visual injury, 0 to 100 scale (0 no effect, 100 complete control)
Procedure, shortened: as §1

[17] = tested on: blackgrass (Alopecurus myosuroides); test: Test C postemergence, blackgrass; conditions: 125 g ai/ha Postemergence; 0 is no effect, 100 is complete control
corn (Zea mays) [18] = test: Test C preemergence, corn; conditions: 0 is no effect, 100 is complete control
Procedure, shortened: as §1

[19] = tested on: foxtail, giant (giant foxtail, Setaria faberi); test: Test C preemergence, giant foxtail; conditions: 0 is no effect, 100 is complete control
Procedure, shortened: as §1

rice (Oryza sativa) = test: Test D flooded paddy test, rice; set-up: key: 0 = no effect, 100 = complete control; conditions: 250 g ai/ha, Flood; applied to paddy water at 2-leaf stage; visual rating after 13 days; scale 0 (no effect) to 100 (complete control)
Procedure, shortened: as §2

[20] = tested on: pigweed, palmer (palmer amaranth, Amaranthus palmeri); test: Test C postemergence, palmer amaranth; conditions: visual injury, 0 to 100 scale (0 no effect, 100 complete control)
Procedure, shortened: as §1

[21] = tested on: ragweed (common ragweed, Ambrosia artemisiifolia); test: Test C preemergence, ragweed; conditions: 0 is no effect, 100 is complete control
Procedure, shortened: as §1

[22] = tested on: ducksalad (Heteranthera limosa); test: Test D flooded paddy test, ducksalad; set-up: key: 0 = no effect, 100 = complete control; conditions: 250 g ai/ha, Flood; applied to paddy water at 2-leaf stage; visual rating after 13 days; scale 0 (no effect) to 100 (complete control)
Procedure, shortened: as §2

[23] = tested on: barnyardgrass (Echinochloa crusgalli); test: Test D flooded paddy test, barnyardgrass; set-up: key: 0 = no effect, 100 = complete control; conditions: 250 g ai/ha, Flood; applied to paddy water at 2-leaf stage; visual rating after 13 days; scale 0 (no effect) to 100 (complete control)
Procedure, shortened: as §2

[24] = tested on: wheat (Triticum aestivum); test: Test C preemergence, wheat; conditions: 0 is no effect, 100 is complete control
[25] = tested on: oat, wild (wild oat, Avena fatua); test: Test C preemergence, wild oat; conditions: 0 is no effect, 100 is complete control
Procedure, shortened: as §1

[26] = tested on: oat, wild (wild oat, Avena fatua); test: Test C postemergence, wild oat
[27] = tested on: goosegrass (Eleusine indica); test: Test C postemergence, goosegrass
Procedure, shortened: as §1

[28] = tested on: horseweed (Erigeron canadensis); test: Test C postemergence, horseweed
Procedure, shortened: as §1

[29] = 31 g ai/ha Postemergence, visual injury, 0 to 100 scale (0 no effect, 100 complete control)
[30] = 125 g ai/ha Postemergence, 0 is no effect, 100 is complete control

Cc1c(N2CCCC(OC3CCC3)C2=O)cc(N(COC(=O)C(C)(C)C)S(=O)(=O)C(F)(F)F)c(C)c1F (stereo not shown) [Compound 39]
Soybean plant response rating (soybean (Glycine max) [1]; 31 g ai/ha Postemergence): 50 | Soybean plant response rating (soybean (Glycine max) [1]; 125 g ai/ha Postemergence): 90 | Plant response rating (0 to 100 scale), Kochia (kochia (Bassia scoparia) [2]; 31 g ai/ha Preemergence): 20 | Plant response rating (0 to 100 scale), Kochia (kochia (Bassia scoparia) [2]; 125 g ai/ha Preemergence): 60 | Corn plant response rating (corn (Zea mays) [3]; [29]): 0 | Plant response rating (0 to 100 scale), Corn (corn (Zea mays) [3]; [30]): 10 | Ryegrass, Italian plant response rating ([4]; 31 g ai/ha Postemergence): 0 | Ryegrass, Italian plant response rating ([4]; 125 g ai/ha Postemergence): 30 | Kochia plant response rating (kochia (Bassia scoparia) [5]; [29]): 30 | Plant response rating (0 to 100 scale), Kochia (kochia (Bassia scoparia) [5]; [30]): 60 | Blackgrass plant response rating [6]: 0 | Plant response rating (0 to 100 scale), Goosegrass ([7]; 31 g ai/ha Preemergence): 10 | Plant response rating (0 to 100 scale), Goosegrass ([7]; 125 g ai/ha Preemergence): 60 | Plant response rating (0 to 100 scale), Pigweed, Palmer ([8]; 31 g ai/ha Preemergence): 0 | Plant response rating (0 to 100 scale), Pigweed, Palmer ([8]; 125 g ai/ha Preemergence): 40 | Plant response rating (0 to 100 scale), Soybean (soybean (Glycine max) [9]; 31 g ai/ha Preemergence): 0 | Plant response rating (0 to 100 scale), Soybean (soybean (Glycine max) [9]; 125 g ai/ha Preemergence): 60 | Wheat plant response rating ([10]; 31 g ai/ha Postemergence): 0 | Wheat plant response rating ([10]; 125 g ai/ha Postemergence): 60 | Galium plant response rating [11, 29]: 80 | Plant response rating (0 to 100 scale), Galium [11, 30]: 90 | Plant response rating (0 to 100 scale), Ryegrass, Italian ([12]; 31 g ai/ha Preemergence): 0 | Plant response rating (0 to 100 scale), Ryegrass, Italian ([12]; 125 g ai/ha Preemergence): 60 | Plant response rating (0 to 100 scale), Blackgrass ([13]; 31 g ai/ha Preemergence): 0 | Plant response rating (0 to 100 scale), Blackgrass ([13]; 125 g ai/ha Preemergence): 20 | Plant response rating, Sedge, Umbrella [14]: 95 | Foxtail, Giant plant response rating [15, 29]: 0 | Plant response rating (0 to 100 scale), Foxtail, Giant [15, 30]: 10 | Ragweed plant response rating ([16]; 31 g ai/ha Postemergence): 30 | Ragweed plant response rating ([16]; 125 g ai/ha Postemergence): 80 | Plant response rating (0 to 100 scale), Blackgrass [17]: 10 | Plant response rating (0 to 100 scale), Corn (corn (Zea mays) [18]; 31 g ai/ha Preemergence): 0 | Plant response rating (0 to 100 scale), Corn (corn (Zea mays) [18]; 125 g ai/ha Preemergence): 10 | Plant response rating (0 to 100 scale), Foxtail, Giant ([19]; 31 g ai/ha Preemergence): 0 | Plant response rating (0 to 100 scale), Foxtail, Giant ([19]; 125 g ai/ha Preemergence): 10 | Plant response rating, Rice (rice (Oryza sativa)): 0 | Pigweed, Palmer plant response rating ([20]; 31 g ai/ha Postemergence): 0 | Pigweed, Palmer plant response rating ([20]; 125 g ai/ha Postemergence): 20 | Plant response rating (0 to 100 scale), Ragweed ([21]; 31 g ai/ha Preemergence): 0 | Plant response rating (0 to 100 scale), Ragweed ([21]; 125 g ai/ha Preemergence): 80 | Plant response rating, Ducksalad [22]: 55 | Plant response rating, Barnyardgrass [23]: 35 | Plant response rating (0 to 100 scale), Wheat ([24]; 31 g ai/ha Preemergence): 0 | Plant response rating (0 to 100 scale), Wheat ([24]; 125 g ai/ha Preemergence): 0 | Plant response rating (0 to 100 scale), Oat, Wild ([25]; 31 g ai/ha Preemergence): 0 | Plant response rating (0 to 100 scale), Oat, Wild ([25]; 125 g ai/ha Preemergence): 0 | Oat, Wild plant response rating [26, 29]: 0 | Plant response rating (0 to 100 scale), Oat, Wild [26, 30]: 20 | Goosegrass plant response rating [27, 29]: 0 | Plant response rating (0 to 100 scale), Goosegrass [27, 30]: 30 | Horseweed plant response rating [28, 29]: 70 | Plant response rating (0 to 100 scale), Horseweed [28, 30]: 90
